Experimental data reported in patent US11891366B1, “4-methoxy-n′-(2-(5-phenyl-1,3,4-oxadiazol-2-ylthio)acetoxy)benzimidamide as an antimicrobial compound” (KING FAISAL UNIVERSITY, priority 2023, dated 2024).

Assays:
Type in all cases: cell-based
Bacillus Cereus = assay: Agar plate disc-diffusion, antibacterial activity (inhibition zone); details: nutrient agar, 37° C., 48 hours
Procedure: (§1) The agar plate disc-diffusion method was applied. Sterilized filter papers (6 mm in diameter) were wetted with 10 μL of a solution 4-methoxy-N′-(2-(5-phenyl-1,3,4-oxadiazol-2-ylthio)acetoxy)benzimidamide (3) to be tested, containing 10 mg/mL in DMSO, and the discs were allowed to air dry. The discs were then placed onto the surface of agar plates (nutrient agar for bacteria and Sabouraud's dextrose agar for fungi) seeded with the test organism. Each plate contained 15 mL of the agar medium, previously seeded with 0.2 mL of the broth culture of each organism pregrown for 18 hours. The plates were incubated at 37° C. for 48 hours, and 72 hours for fungi. The inhibition zones were measured in millimeters (mm). Discs impregnated with DMSO were used as a control, and its inhibition zone was subtracted from the tested compound actual inhibition zone.

Escherichia coli = assay: as above; details: nutrient agar, 37° C., 48 hours
Procedure: as §1, with “Sterilized filter papers (6 mm in diameter) were wetted with 10 μL of a solution 4-methoxy-N′-(2-(5-phenyl-1,3,4-oxadiazol-2-ylthio)acetoxy)benzimidamide (3) to be tested, containing 10 mg/mL in DMSO, and the discs were allowed to air dry.” left out

Pseudomonas aeruginosa = assay: as above; details: nutrient agar, 37° C., 48 hours
Procedure: as §1, with “Sterilized filter papers (6 mm in diameter) were wetted with 10 μL of a solution 4-methoxy-N′-(2-(5-phenyl-1,3,4-oxadiazol-2-ylthio)acetoxy)benzimidamide (3) to be tested, containing 10 mg/mL in DMSO, and the discs were allowed to air dry.” left out

Staphylococcus aureus = assay: as above; details: nutrient agar, 37° C., 48 hours
Procedure: as §1, with “Sterilized filter papers (6 mm in diameter) were wetted with 10 μL of a solution 4-methoxy-N′-(2-(5-phenyl-1,3,4-oxadiazol-2-ylthio)acetoxy)benzimidamide (3) to be tested, containing 10 mg/mL in DMSO, and the discs were allowed to air dry.” left out

Aspergillus flavus = assay: Agar plate disc-diffusion, antifungal activity (inhibition zone); details: Sabouraud's dextrose agar, 37° C., 72 hours
Procedure: as §1, with “Sterilized filter papers (6 mm in diameter) were wetted with 10 μL of a solution 4-methoxy-N′-(2-(5-phenyl-1,3,4-oxadiazol-2-ylthio)acetoxy)benzimidamide (3) to be tested, containing 10 mg/mL in DMSO, and the discs were allowed to air dry.” left out

[1] = test system: Chrysosporium keratinophilum; assay: as above; details: Sabouraud's dextrose agar, 37° C., 72 hours
Procedure: as §1, with “Sterilized filter papers (6 mm in diameter) were wetted with 10 μL of a solution 4-methoxy-N′-(2-(5-phenyl-1,3,4-oxadiazol-2-ylthio)acetoxy)benzimidamide (3) to be tested, containing 10 mg/mL in DMSO, and the discs were allowed to air dry.” left out

[2] = A = concentration of comp. = 10,000 μL
[3] = B = concentration of comp. = 30,000 μL
[4] = C = concentration of comp. = 50,000 μL

SMILES	inhibition zone (Bacillus Cereus; [2]) [mm]	inhibition zone (Bacillus Cereus; [3]) [mm]	inhibition zone (Bacillus Cereus; [4]) [mm]	inhibition zone (Escherichia coli; [2]) [mm]	inhibition zone (Escherichia coli; [3]) [mm]	inhibition zone (Escherichia coli; [4]) [mm]	inhibition zone (Pseudomonas aeruginosa; [2]) [mm]	inhibition zone (Pseudomonas aeruginosa; [3]) [mm]	inhibition zone (Pseudomonas aeruginosa; [4]) [mm]	inhibition zone (Staphylococcus aureus; [2]) [mm]	inhibition zone (Staphylococcus aureus; [3]) [mm]	inhibition zone (Staphylococcus aureus; [4]) [mm]	inhibition zone (Aspergillus flavus; [2]) [mm]	inhibition zone (Aspergillus flavus; [3]) [mm]	inhibition zone (Aspergillus flavus; [4]) [mm]	inhibition zone [1, 2] [mm]	inhibition zone [1, 3] [mm]	inhibition zone [1, 4] [mm]
COc1ccc(/C(N)=N/OC(=O)CSc2nnc(-c3ccccc3)o2)cc1 [Compound 3, 4-methoxy-N′-(2-(5-phenyl-1,3,4-oxadiazol-2-ylthio)acetoxy)benzimidamide]	27	29	41	26	34	49	23	28	41	22	30	45	21	25	38	26	28	41
O=C(O)c1cn(C2CC2)c2cc(N3CCNCC3)c(F)cc2c1=O [Cip., ciprofloxacin]	29	30	42	30	39	60	29	30	53	43	44	53	29	30	42	29	30	53
